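Cultured in 96-well plates, cells were exposed to test compound for 48 hours across five concentrations. Abbreviation: GI50, concentration required for 50% inhibition of growth.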 The source made the active and inactive calls. Rule as the data show it: active = GI50 up to about 1.1 µM and inactive = higher.
Legend:
Experiment in all cases: inhibition of tumour cell growth, NCI panel, 48 h
DMS-273 = tested on: DMS-273
HOP-62 = tested on: HOP-62
CCRF-CEM = tested on: CCRF-CEM
SK-MEL-28 = tested on: SK-MEL-28
M14 = tested on: M14
SK-MEL-5 = tested on: SK-MEL-5
NCI-H23 = tested on: NCI-H23
OVCAR-5 = tested on: OVCAR-5
HCT-116 = tested on: HCT-116
A549 = tested on: A549
SK-OV-3 = tested on: SK-OV-3
A498 = tested on: A498
IGROV-1 = tested on: IGROV-1
SNB-19 = tested on: SNB-19
NCI-H460 = tested on: NCI-H460
NCI-H522 = tested on: NCI-H522
MDA-MB-435 = tested on: MDA-MB-435
MDA-N = tested on: MDA-N
T47D = tested on: T47D
BT-549 = tested on: BT-549

| Structure (SMILES) | GI50 (DMS-273) | GI50 (HOP-62) | GI50 (CCRF-CEM) | GI50 (SK-MEL-28) | GI50 (M14) | GI50 (SK-MEL-5) | GI50 (NCI-H23) | GI50 (OVCAR-5) | GI50 (HCT-116) | GI50 (A549) | GI50 (SK-OV-3) | GI50 (A498) | GI50 (IGROV-1) | GI50 (SNB-19) | GI50 (NCI-H460) | GI50 (NCI-H522) | GI50 (MDA-MB-435) | GI50 (MDA-N) | GI50 (T47D) | GI50 (BT-549) |
| --- | --- | --- | --- | --- | --- | --- | --- | --- | --- | --- | --- | --- | --- | --- | --- | --- | --- | --- | --- | --- |
| COc1ccc(/N=C/c2ccc(N(CCC#N)S(=O)(=O)c3ccccc3)cc2)cc1 | > 100 µM (inactive) | > 100 µM (inactive) | > 100 µM (inactive) | > 100 µM (inactive) | > 100 µM (inactive) | > 100 µM (inactive) | > 100 µM (inactive) | > 100 µM (inactive) | > 100 µM (inactive) | > 100 µM (inactive) | > 100 µM (inactive) | > 100 µM (inactive) | > 100 µM (inactive) | > 100 µM (inactive) | > 100 µM (inactive) | > 100 µM (inactive) |  |  |  |  |
| CCCCOC(=O)N[C@H]1CCc2cc(OC)c(OC)c(OC)c2-c2ccc(SC)c(=O)cc21 | < 0.01 µM (active) | < 0.01 µM (active) | < 0.01 µM (active) | 0.752 µM (active) | < 0.01 µM (active) | < 0.01 µM (active) | < 0.01 µM (active) | 0.147 µM (active) | < 0.01 µM (active) | < 0.01 µM (active) | 0.0303 µM (active) | < 0.01 µM (active) | 0.0101 µM (active) | < 0.0153 µM (active) | < 0.01 µM (active) | < 0.01 µM (active) | < 0.01 µM (active) | < 0.01 µM (active) | 18.1 µM (inactive) |  |
| CCCCCCCSCC1C(=O)C23C(O)C1CCC2C12COC3(O)C(O)C1C(C)(C)CCC2O (stereo not given) | 12.6 µM (inactive) | 20.3 µM (inactive) | 2.75 µM (inactive) | 9.51 µM (inactive) | 12.2 µM (inactive) | 12.1 µM (inactive) | 16.3 µM (inactive) | 17.5 µM (inactive) | 5.5 µM (inactive) | 18.7 µM (inactive) | 18.1 µM (inactive) | 11.5 µM (inactive) | 17.9 µM (inactive) | 18.9 µM (inactive) | 15.1 µM (inactive) | 1.4 µM (inactive) |  |  |  |  |
| CCOc1ccc(NC(=O)CCc2nnc(SC)o2)cc1 | > 100 µM (inactive) | > 100 µM (inactive) | > 100 µM (inactive) | > 100 µM (inactive) | > 100 µM (inactive) | > 100 µM (inactive) | > 100 µM (inactive) | > 100 µM (inactive) | > 100 µM (inactive) | > 100 µM (inactive) | > 100 µM (inactive) | > 100 µM (inactive) | > 100 µM (inactive) | > 100 µM (inactive) | > 100 µM (inactive) | > 100 µM (inactive) |  |  |  |  |
| Cc1c(/N=C\c2ccc(N(CCC#N)CCC#N)cc2)c(=O)n(-c2ccccc2)n1C | > 88.5 µM (inactive) | 31.5 µM (inactive) | > 100 µM (inactive) | > 100 µM (inactive) | 92.7 µM (inactive) | > 100 µM (inactive) | > 100 µM (inactive) | > 100 µM (inactive) | > 100 µM (inactive) | 82.6 µM (inactive) | > 100 µM (inactive) | 69.2 µM (inactive) | > 93.5 µM (inactive) | 41.8 µM (inactive) | > 100 µM (inactive) | > 100 µM (inactive) | > 100 µM (inactive) | > 100 µM (inactive) | > 100 µM (inactive) | > 100 µM (inactive) |
| Cc1cc(/C=C/c2cc[n+](C)c3ccccc23)c(O)c2ncccc12 | 0.558 µM (active) | 1.87 µM (inactive) | 0.181 µM (active) | 2.16 µM (inactive) | 1.44 µM (inactive) | 1.02 µM (active) | 1.7 µM (inactive) | 3.27 µM (inactive) | 0.966 µM (active) | 2.07 µM (inactive) | 2.4 µM (inactive) | 4.19 µM (inactive) | 1.93 µM (inactive) | 4.55 µM (inactive) | 0.597 µM (active) | 1.77 µM (inactive) |  |  |  |  |
| CCSC1=CC(Cc2ccc(OC)cc2)N(C(=O)OC)C1 (stereo not given) | 70 µM (inactive) | > 100 µM (inactive) | 49.7 µM (inactive) | > 100 µM (inactive) | > 100 µM (inactive) | 49.4 µM (inactive) | > 100 µM (inactive) | > 100 µM (inactive) | 52.2 µM (inactive) | > 100 µM (inactive) | > 100 µM (inactive) | > 100 µM (inactive) | > 100 µM (inactive) | > 100 µM (inactive) | > 100 µM (inactive) | 52.6 µM (inactive) |  |  |  |  |
| S=c1sc2c(S)nc(S)nc2n1-c1ccccc1 | > 100 µM (inactive) | > 100 µM (inactive) | 80.2 µM (inactive) | > 100 µM (inactive) | > 100 µM (inactive) | > 100 µM (inactive) | > 100 µM (inactive) | > 100 µM (inactive) | > 100 µM (inactive) | > 100 µM (inactive) | > 100 µM (inactive) | 41 µM (inactive) | > 100 µM (inactive) | > 100 µM (inactive) | > 100 µM (inactive) | 41.5 µM (inactive) |  |  |  |  |
| O=C1C2C3C=C4c5ccccc5N(c5ccccc5)C4(C2C(=O)N1c1ccc(Br)cc1)[C@H]1C(=O)N(c2ccc(Br)cc2)C(=O)[C@@H]31 (stereo not given in full) | > 100 µM (inactive) | > 100 µM (inactive) | > 100 µM (inactive) |  | 43.4 µM (inactive) | > 100 µM (inactive) | > 100 µM (inactive) | > 100 µM (inactive) | > 100 µM (inactive) | > 100 µM (inactive) | > 100 µM (inactive) | > 100 µM (inactive) | > 100 µM (inactive) | > 100 µM (inactive) | > 100 µM (inactive) | > 100 µM (inactive) |  |  |  |  |
| COC(=O)[C@@]12OC[C@]34C([C@@H](O)C1O)[C@@]1(C)CC(=O)C(OC(=O)/C=C(/c5ccccc5)C(F)(F)F)=C(C)C1C[C@H]3OC(=O)[C@H](O)[C@H]42 (stereo not given in full) | 3.44 µM (inactive) | 12.4 µM (inactive) | 8.71 µM (inactive) | 5.31 µM (inactive) | 8.77 µM (inactive) | 4.83 µM (inactive) | 4.56 µM (inactive) | 21.8 µM (inactive) | 8.63 µM (inactive) | 16.5 µM (inactive) | 7.89 µM (inactive) | 0.52 µM (active) | 3.9 µM (inactive) | 4.71 µM (inactive) | 2.43 µM (inactive) | 6.35 µM (inactive) |  |  |  |  |
| COc1cc2c(cc1OC)C(OC)N(C)c1c-2ccc2cc3c(cc12)OCO3 (stereo not given) | 1.11 µM (active) | 1.4 µM (inactive) | 0.653 µM (active) | 4.28 µM (inactive) | 3.3 µM (inactive) | 1.8 µM (inactive) | 1.67 µM (inactive) | 1.42 µM (inactive) | 1.66 µM (inactive) | 0.201 µM (active) | 0.916 µM (active) | 0.458 µM (active) | 0.805 µM (active) | 0.665 µM (active) | 0.486 µM (active) | 0.152 µM (active) | 69 µM (inactive) | 13.6 µM (inactive) |  | 3.06 µM (inactive) |
